This is an account of results in ChEMBL document CHEMBL1150707, “Isolation, structure, and synthesis of combretastatins A-1 and B-1, potent new inhibitors of microtubule assembly, derived from Combretum caffrum” (1987).

In brackets after ≈: the same amount, converted by molar mass. Activity calls are given as the source filed them. The calls are words filed in the database; no cut-off is given here.

Test [1] relates to P388. The test can be described thus: In vivo cytotoxicity against mouse P388 cells assessed as increase in life extension at 2.75 to 11 mg/kg. Type of test: functional. As to conditions: dose mg/kg 2.75-11.
A short description of test [2]: Inhibition of microtubule assembly by turbidimetry.
The subject of test [3] is P388. The test can be described thus: In vivo cytotoxicity against mouse P388 cells. Format: functional.
Test [4] is described as follows: Displacement of [3H]colchicine from tubulin after 10 mins relative to control. Set-up: concentration or dose not given beside the values. In general terms: Loss of bound radioactivity is the signal in a displacement assay; it reports binding, not function.

For `COc1ccc(/C=C\c2cc(OC)c(OC)c(OC)c2)c(O)c1O` [COMBRETASTATIN A-1], the Activity was 26% in test [1] and 2.2% in test [4]. In test [2], this compound showed an ID50 of 2 µM. The compound also returned an ED50 in test [3] of 0.99 µg/mL (≈ 2.98 µM).
In the case of `COc1ccc(C[C@@H](O)c2cc(OC)c(OC)c(OC)c2)cc1O`, the ID50 in test [2] is 11 µM. The compound further registered an Activity in test [4] of 34%.
On to `COc1cc(/C=C\c2ccc(OC)c(O[Si](C)(C)C(C)(C)C)c2O[Si](C)(C)C(C)(C)C)cc(OC)c1OC`, for which the ED50 entry in test [3] is “inactive”.
`COc1cc2c(c(OC)c1OC)-c1cc3c(cc1[C@@H](OC(C)=O)C1COC(=O)[C@H]1C2)OCO3` (some centres not stated) yielded an ID50 in test [2] of 6 µM. In test [4], this compound yielded an Activity of 49%.
In test [3], `COc1cc(/C=C\c2ccc(OC)c(OC(C)=O)c2OC(C)=O)cc(OC)c1OC` yielded an ED50 of 2.7 µg/mL (≈ 6.48 µM).
Still for that read-out and setting: as for `COc1cc(/C=C/c2ccc(OC)c(O[Si](C)(C)C(C)(C)C)c2O[Si](C)(C)C(C)(C)C)cc(OC)c1OC`, the entry is “inactive”; as for `COc1cc(/C=C/c2ccc(OC)c(OC(C)=O)c2OC(C)=O)cc(OC)c1OC`, 12 µg/mL (≈ 28.8 µM).
As to `COc1cc([C@@H]2c3cc4c(cc3[C@H](O)[C@H]3COC(=O)[C@H]23)OCO4)cc(OC)c1OC`, the ID50 in test [2] was 3 µM. In test [4], this compound registered an Activity of 13%.
In test [2], `COc1cc2c(c(OC)c1OC)-c1ccc(OC)c(=O)cc1[C@@H](NC(C)=O)CC2` returned an ID50 of 6 µM.
Regarding `COc1ccc(CCc2cc(OC)c(OC)c(OC)c2)c(O)c1O`, the ID50 in test [2] stood at 3 µM. This compound registered an Activity in test [4] of 13%.
